Bounds are passed on as bounds.

Common to all, as to format: physicochemical
Data set [1] in a line: Solubility of BC-3781 acetate in various media. An excerpt: The solubility of BC-3781 acetate in various media is as follows: […]
Data set [2] in a line: Stability at physiological pH. The following applies: pH 6.8 to 7.4. An excerpt:
Reported local tolerability issues are often linked to insufficient solubity of the compound at physiological pH which, however, is not the case for BC-3781.

The next data set can be described thus: pKa value measured.

Regarding `C=C[C@]1(C)C[C@@H](OC(=O)CS[C@@H]2CC[C@@H](N)C[C@H]2O)[C@]2(C)[C@H](C)CC[C@]3(CCC(=O)[C@H]32)[C@@H](C)[C@@H]1O` [BC-3781 acetate, 14-O-{[(1R, 2R, 4R)-4-amino-2-hydroxy-cyclohexylsulfanyl]-acetyl}-mutilin], the solubility (commonly the concentration that dissolves in the medium under given conditions) was ≥ 100 mg/mL in data set [1] (aqueous buffer, pH 7.4 (300 mM phosphate buffer)) and ≥ 100 mg/mL in data set [1] (water).
Regarding `C=C[C@]1(C)C[C@@H](OC(=O)CS[C@@H]2CC[C@@H](N)C[C@H]2O)[C@]2(C)[C@H](C)CC[C@]3(CCC(=O)[C@H]32)[C@@H](C)[C@@H]1O` [BC-3781, 14-O-{[(1R, 2R, 4R)-4-amino-2-hydroxy-cyclohexylsulfanyl]-acetyl}-mutilin], in data set [2], the “Stability at physiological pH” value is recorded as “excellent stability”. For the same compound, the pKa (commonly the pH at which an ionisable group is half protonated) in the data set “pKa value measured” came out at 9.41.

Values taken from patent publication US20250009885A1, “INJECTABLE PHARMACEUTICAL FORMULATIONS OF LEFAMULIN” (NABRIVA THERAPEUTICS GMBH, priority 2015, published 2025).
